In US20100184703A1, “USE OF PEPTIDE DERIVATIVES FOR TREATING PATHOLOGIES RESULTING FROM ISCHEMIA” (CHIESI FARMACEUTICI S.p.A., priority 2007, published 2010):
Entries after “also recorded” stand apart in the source; their conditions may differ. Peptide text beside a SMILES is read from it. * marks the point of attachment. X1 = COC(=O)CC(N*)C(=O)COc1c(F)cccc1F; Quinaldoyl = O=C(c1ccc2ccccc2n1)*

What was measured:
TNFα, IL1β, IL10 = assay: Multiplex assay (Luminex) of circulating cytokines after ischemia-reperfusion; format: in vivo, rat; conditions: IR model; for circulating level of TNFα: injected 15 min prior to the reperfusion, compared to sham-operated; for IL-1β elevation / IL-10 elevation: within the first 24 hours of reperfusion
Method: Another series of experiments was conducted in the rat model of ischemia-reperfusion. Ischemia and reperfusion is well known to trigger an acute inflammatory process in animal model as well as in human. In our rat model, at the euthanasia, blood sample were collected in order to measure the inflammatory response on sera. This was performed by multiplex assay (Luminex technology). Three parameters were simultaneously measured at various time after myocardial reperfusion the pro inflammatory cytokines TNFα and IL1β as well as the anti-inflammatory cytokine IL10. […] B-C. […] In summary, caspase 2 inhibition prevents the acute inflammatory response occurring during the first 24 hours after myocardial reperfusion. *p<0.05 compared to sham-operated animals, n≧5 animals.

caspase-3 = target: T1, caspase-3 (Rattus norvegicus, UniProt P55213); assay: Dosage of caspase-3 activity in myocardial tissue, reperfusion ischemia (IR) model; format: in vivo; conditions: administered 15 min before the reperfusion, VGZI, VD, Apex and VGZNI
T1 construct: from tissue; host or cells: rat myocardium (left ventricle, right ventricle, septum, apex) extracts
T1 sequence (P55213 29-175 limits assumed): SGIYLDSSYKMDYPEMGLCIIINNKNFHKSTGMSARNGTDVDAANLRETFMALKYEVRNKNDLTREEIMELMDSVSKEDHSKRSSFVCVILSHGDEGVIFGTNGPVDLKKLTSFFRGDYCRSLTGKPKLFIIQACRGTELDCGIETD
T1 sequence (P55213 176-277 limits assumed): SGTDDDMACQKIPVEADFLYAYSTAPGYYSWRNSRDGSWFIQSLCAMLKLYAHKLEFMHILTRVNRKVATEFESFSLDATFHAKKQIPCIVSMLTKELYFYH
Method: The analyses were performed on 2 myocardial ischemia models: a chronic ischemia model and an acute ischemia model, followed by myocardial reperfusion after 30 min of occlusion.
Said models were realized with Wistar male rats (180-220 g). The coronary artery was ligatured according to Pfeffer et al protocol.
Briefly, the rats were anaesthetized by intraperitoneal administration of a mixture of Ketamine (150 mg/kg) and Xylazine (15 mg/kg), then intubated and mechanically ventilated. The animals were submitted to a left and median thoracotomy. An occlusion of the coronary artery was done with a silk wire (size: 7.0) at the more proximal point and below the auricle.
In the case of reperfusion ischemia model (IR model), the silk wire was untied after 30 min of occlusion. The artery was then cleared and the myocardial territory reperfused. The control animals (sham operated) were submitted to the same surgery protocol as the above animals, but the silk wire was passed under the coronary without making any ligature.
The animals were sacrificed by a pentobarbital lethal injection. The heart was excised and perfused about 5 min by Langerdorf reverse way using a calcium-free washing solution (in mM: NaCl 117 mM, KCl 5.7, NaHCO3 4.4, KH2PO4 1.5, MgCl2 1.7, HEPES 21, glucose 11, taurine 20, pH 7.2 adjusted with NaOH). The heart was then placed into a dissection tank and the different myocardial territories were taken (i.e. right ventricle (VD), septum, Apex, left ventricle (selectively in infarcted area (VGZI) and non-infarcted area (VGZNI)). Each fragment of tissue was rapidly frozen in liquid nitrogen and kept at −80° C.
Each tissue was then thawed and about 1-2 mm^3 was taken. […]
The supernatant was taken and divided into 2 tubes for of each sample. The tubes were placed at −80° C. before performing the spectrophotometric proteic dosage (BCA: cupper (II) sulphate+solution A of bicinchronic acid, DO measured at 550 nm) in transparent, with flat bottom, 96-well plates. […]

caspase-2 [1] = target: T2, caspase-2 (Rattus norvegicus, UniProt P55215); assay: Dosage of caspase-2 activity in myocardial tissue, chronic ischemia (PMI) model; format: in vivo; conditions: PMI 72 h; for caspase-2 activity: pre-treated rats, left ventricle (VG) and septum, 1 mg/kg
T2 construct: Each fragment of tissue was rapidly frozen in liquid nitrogen and kept at −80° C; from tissue; host or cells: rat myocardium (left ventricle, right ventricle, septum, apex) extracts
T2 sequence (P55215 170-325 limits assumed): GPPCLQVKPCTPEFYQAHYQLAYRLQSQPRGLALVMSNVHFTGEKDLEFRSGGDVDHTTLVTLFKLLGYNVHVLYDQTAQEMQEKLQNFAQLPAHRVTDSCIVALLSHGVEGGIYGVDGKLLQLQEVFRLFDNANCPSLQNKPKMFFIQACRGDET
T2 sequence (P55215 348-452 limits assumed): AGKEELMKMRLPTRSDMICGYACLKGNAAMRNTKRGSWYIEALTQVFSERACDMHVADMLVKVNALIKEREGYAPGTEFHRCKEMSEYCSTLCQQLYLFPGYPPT

[2] = test system: ANF, BNP, fibronectin, β-MHC, TNFR1, TNFR2, TNFα, caspase-2 mRNA; assay: Quantitative RT-PCR of heart failure, fibrosis, hypertrophy and TNFα signaling markers after ischemia/reperfusion; format: in vivo, rat; conditions: IR model; for mRNA expression level of TNFα / mRNA expression level of TNFα receptor 1 (TNFR1) / mRNA expression level of TNFα receptor 2 (TNFR2) / mRNA expression level of caspase-2: increase in vehicle-injected animals; for mRNA expression level of β-Myosin Heavy Chain (β-MHC): marker for hypertrophy development; for mRNA expression level of fibronectin: marker of fibrosis development; for mRNA expression level of Atrial Natriuretic Factor (ANF) / mRNA expression level of brain natriuretic peptide (BNP): marker of heart failure
Method: In a second series of experiments, quantitative RT-PCR was performed to evaluate the level of expression of 2 markers of heart failure, Atrial Natriuretic Factor (ANF) and Brain Natriuretic Factor (BNP) as well as a marker of myocardial fibrosis, fibronectine, and myocardial hypertrophy, βMHC. […] B. mRNA expression levels of fibronectin a marker of fibrosis development, and β-Myosin Heavy Chain (β-MHC) a marker for hypertrophy development

caspase-2 [3] = target: T2, caspase-2; assay: Dosage of caspase-2 activity in myocardial tissue, reperfusion ischemia (IR) model; format: in vivo; conditions: administered 15 min before the reperfusion, VGZI and septum

Compound	circulating level of TNFα (TNFα, IL1β, IL10)	IL-1β elevation (TNFα, IL1β, IL10)	IL-10 elevation (TNFα, IL1β, IL10)	caspase-3 activity (caspase-3)	caspase-3 activity (caspase-3; listed as QVDOPH)	caspase-2 activity (caspase-2 [1])	mRNA expression level of TNFα [2]	mRNA expression level of TNFα receptor 1 (TNFR1) [2]	mRNA expression level of TNFα receptor 2 (TNFR2) [2]	mRNA expression level of caspase-2 [2]	mRNA expression level of β-Myosin Heavy Chain (β-MHC) [2]	mRNA expression level of fibronectin [2]	mRNA expression level of Atrial Natriuretic Factor (ANF) [2]	mRNA expression level of brain natriuretic peptide (BNP) [2]	caspase-2 activity (caspase-2 [3])	caspase-2 activity (caspase-2 [3]; listed as QVDOPH)	caspase-2 basal activity (caspase-2 [1]; right ventricular (RV))
CC(C)[C@H](NC(=O)c1ccc2ccccc2n1)C(=O)N[C@@H](CC(=O)O)C(=O)COc1c(F)cccc1F [Q-VD-OPH]	not significantly different	prevented	prevented	inhibits the activity of both caspases	normalization of the activity	inhibited	prevented	prevented	prevented	prevented	blocked	blocked	comparable to sham-operated animals	comparable to sham-operated animals	inhibits the activity of both caspases	normalization of the activity	
COC(=O)CC(NC(=O)[C@H](C)NC(=O)[C@@H](NC(=O)[C@H](CC(=O)OC)NC(=O)[C@@H](NC(=O)c1ccc2ccccc2n1)C(C)C)C(C)C)C(=O)COc1c(F)cccc1F (stereo partly drawn) [D1, (3S,6S,9S,12S)-methyl 15-(2-(2,6-difluorophenoxy)acetyl)-3,9-diisopropyl-6-(2-methoxy-2-oxoethyl)-12-methyl-1,4,7,10,13-pentaoxo-1-(quinolin-2-yl)-2,5,8,11,14-pentaazaheptadecan-17-oate] (Quinaldoyl-VD(OMe)VA-X1)	not significantly different	prevented	prevented	normalization of the activity; also recorded: prevents the further activation		inhibited	prevented	prevented	prevented	prevented	blocked	blocked	comparable to sham-operated animals	comparable to sham-operated animals	normalization of the activity; also recorded: specifically inhibits		weak inhibition
